Measured values taken from patent US20120095445A1, “METHODS AND COMPOSITIONS FOR INCREASING TRICHOGENIC POTENCY OF DERMAL CELLS” (Aderans Research Institute, Inc., priority 2009, published 2012).

How the values were obtained:
human adult dermal cells = assay: Aderans Hair Patch Assay (hybrid patch assay) with cultured human adult dermal cells; format: cell-based
Text: Trichogenic activity of populations of dermal cells can be determined by using the Aderans Hair Patch Assay™ (Zheng, Y., J Invest Dermatol, 124: 867-876 (2005)). In this assay dissociated dermal and epidermal cells are implanted into the dermis or the subcutis of an immunoincompetent mouse. Using mouse newborn skin cells, new hair follicles typically form in this assay within 8 to 10 days. The newly formed follicle manifests normal hair shafts, mature sebaceous glands, and a natural hair cycle. Although normal cycling hair follicles are formed in this assay, the assay primarily measures the ability of cells or combinations of cells to form new follicles. Mouse dermal cells are assayed in conjunction with mouse neonatal epidermal cells.
(§1) Trichogenic activity of populations of dermal cells was determined by the Aderans Hair Patch Assay™ (Zheng, Y., J Invest Dermatol, 124: 867-876 (2005)). In this assay dissociated dermal and epidermal cells are implanted into the dermis or the subcutis of an immunoincompetent mouse. Using mouse newborn skin cells, new hair follicles typically form in this assay within 8 to 10 days. The newly formed follicle manifests normal hair shafts, mature sebaceous glands, and a natural hair cycle. Although normal cycling hair follicles are formed in this assay, the assay primarily measures the ability of cells or combinations of cells to form new follicles. In the classical Patch assay mouse neonatal dermal cells were assayed in conjunction with mouse neonatal epidermal cells. In a modification of that assay human adult dermal cells are assayed in the presence of mouse newborn epidermal cells.
In the initial study four different concentrations of one of the Curls, Inc. Shh pathway agonist (agonist A-CUR-0201365) were used, 0, 0.005, 0.05 and 0.125 ug/ml (FIG. 2A). […] The number of hair follicles formed in the hair patch assay is greater when the cells are grown in the presence of the Shh pathway agonist.
To investigate if Shh pathway agonist can increase cell inductivity with short-term treatment (7 days before harvest); 3 patient samples were tested using agonist B. For each sample, the cells were treated with 0, 0.0125, 0.0375, 0.05 and 0.15 ug/ml of Shh pathway agonist B at the passage P1 or P2. P1 and P2 cells were then harvested after approximately 7 days and analyzed in the hybrid patch assay. […] Cells were treated for that 7 day period only, but not treated prior to that.

dermal cells = assay: Growth and yield of dermal cells in culture (population doubling time, number of cells); format: cell-based, human
Text: FIG. 3A is a graph showing the population doubling time of dermal cells treated with the indicated amount of a Shh pathway agonist. FIG. 3B is a graph showing number of cells (millions) of dermal cells treated with Shh pathway agonist at confluence.
FIG. 5A is a graph showing the average number of cells (millions) in flasks using dermal cells treated with the indicated amount of Shh pathway agonist after one passage in culture. FIG. 5B is a graph showing the average number of cells (millions) in flasks using dermal cells treated with the indicated amount of Shh pathway agonist after two passages in culture. FIG. 5C is a graph of population doubling time (days) for dermal cells treated with the indicated amount of Shh pathway agonist after one passage in culture. FIG. 5D is a graph of population doubling time (days) for dermal cells treated with the indicated amount of Shh pathway agonist after two passages in culture.

human fetal cells = assay: Aderans Hair Patch Assay with human fetal cell cultures; format: cell-based; conditions: for effect on hair number: FIG. 9
Text: FIG. 7 is a graph of the number of hair follicles formed from human fetal cell cultures in the Aderans Hair Patch Assay™ versus the indicated cell culture passage P0, P1, P2 or P3 in cells culture with a Shh pathway agonist. Each passage has a pair of columns with the left column corresponding to results obtained without treating the cells with an agonist and a right column showing results with cells treated with an agonist.
FIG. 8 is a graph of number of hair follicles formed from human fetal cell cultures in the Aderans Hair Patch Assay™ in untreated or treated cells at the indicated cell culture passage.
FIG. 9 is a graph of the number of hair follicles formed from human fetal cell cultures in the Aderans Hair Patch Assay™ in the indicated medium.
as §1
We have recently extended our study of the impact of SHH pathway agonist B (CUR-0236715) on hair inducing activity from human adult cells to human fetal cells, as well as mouse cells.
In another experiment, cells were initially cultured in medium without SHH pathway agonist. The SHH pathway agonist CUR-0236715 was only added to the culture at the beginning of a particular passage, and lasted for that passage only (P1 and P4 as shown in FIG. 8). Adding SHH pathway agonist B (CUR-0236715) at these later passages can still increase fetal cell trichogenicity.

[1] = test system: mouse neonatal dermal cells; assay: Patch assay with mouse neonatal dermal cell culture; format: cell-based
Method: as §1
In addition to cultured human cells, the SHH pathway agonist B was added to mouse neonatal dermal cell culture.

| Structure (SMILES) | hair follicles in the patch assay (per million cells injected) compared to non-treated cells (human adult dermal cells; cells grown in medium with agonist, 0.005-0.625 ug/ml, FIG. 2) | trichogenicity with passage (P1 through P4) (human adult dermal cells; highest concentration, without agonist trichogenicity diminished) | dose-response relationship of hair follicle number in patch assay (human adult dermal cells; increasing agonist concentration in the medium) | cell growth rate (dermal cells; in the higher concentrations, FIG. 3) | short term results versus continuous treatment (human adult dermal cells; 7 day treatment only) | optimal concentration for hair follicle formation (human adult dermal cells; continuous treatment, at P2, FIG. 4B) | hair follicle number in patch assays (human adult dermal cells; continuous treatment, various agonist concentrations, FIG. 4) | hair follicle numbers compared to the control (human adult dermal cells; short-term treatment (7 days before harvest), 0.0125-0.15 ug/ml, P1 or P2, 3 patient samples, FIGS. 6A and 6B) | optimal concentration (human adult dermal cells; short-term treatment (7 days), P1 and P2 cells) | adverse effect on cell growth or yield (dermal cells; all the concentrations tested, FIG. 5) | increase in hair number (human fetal cells; 37.5 ng/ml at P0, FIG. 7) | effect on hair number (human fetal cells; Amniomax, Chang's media and culture medium of Osada et al.) | effect on hair number (human fetal cells; agonist added to cell culture medium) | number of hair follicles versus cells consistently treated throughout the culture (human fetal cells; agonist only at P1 or P4) | number of hair follicles formed versus no SHH control cells (human fetal cells; agonist only at P1 or P4, for that passage only, FIG. 8) | increase of hair number at later passages (human fetal cells; cells continuously cultured in the presence of agonist, FIG. 7) | size of hair follicles compared to non-treated cells [1] | activity as indicated by the number of hair follicles formed in patch assay ([1]; preliminary data, FIG. 10) |
| --- | --- | --- | --- | --- | --- | --- | --- | --- | --- | --- | --- | --- | --- | --- | --- | --- | --- | --- |
| CNC1CCC(N(Cc2cc(-c3ccccc3)ccc2OC)C(=O)c2sc3ccccc3c2Cl)CC1 (stereo not drawn) [agonist A] | produced more hair follicles | remained at a high level | increasing effect (hair follicle number in patch assay) with increasing Shh pathway agonist concentration | decreases | – | – | – | – | – | – | – | – | – | – | – | – | – | – |
| CNC1CCC(N(Cc2cc(-c3ccc(NS(C)(=O)=O)nc3)ccc2OC)C(=O)c2sc3c(F)ccc(F)c3c2Cl)CC1 (stereo not drawn) [agonist B] | – | – | – | – | comparable to that of continuous treatment | 0.0375 µg/mL | increased hair follicle number | higher hair follicle numbers | 0.0375 µg/mL | did not show any adverse effect | more than 3 fold | not significant | increase of hair number | equivalent | about 5 fold | extended to later passages (P3) | increased significantly | increased activity |
